{"source": "PubChem BioAssay (NCI)", "assay_in_all_cases": "NCI anticancer screen, dose series, 48 h", "key": {"[1]": {"tested_on": "RPMI-8226 leukemia"}, "[2]": {"tested_on": "RXF 393 renal"}, "[3]": {"tested_on": "NCI-H522 lung"}, "[4]": {"tested_on": "NCI-H23 lung"}, "[5]": {"tested_on": "A498 renal"}, "[6]": {"tested_on": "CAKI-1 renal"}, "[7]": {"tested_on": "TK-10 renal"}, "[8]": {"tested_on": "BT-549 breast"}, "[9]": {"tested_on": "HT29 colon"}, "[10]": {"tested_on": "M14 melanoma"}, "[11]": {"tested_on": "HCT-116 colon"}, "[12]": {"tested_on": "MOLT-4 leukemia"}, "[13]": {"tested_on": "HL-60(TB) leukemia"}, "[14]": {"tested_on": "U251 CNS"}, "[15]": {"tested_on": "SK-MEL-5 melanoma"}, "[16]": {"tested_on": "PC-3 prostate"}, "[17]": {"tested_on": "UACC-62 melanoma"}, "[18]": {"tested_on": "SF-539 CNS"}, "[19]": {"tested_on": "786-0 renal"}, "[20]": {"tested_on": "SK-MEL-28 melanoma"}, "[21]": {"tested_on": "ACHN renal"}, "[22]": {"tested_on": "MALME-3M melanoma"}, "[23]": {"tested_on": "DU-145 prostate"}, "[24]": {"tested_on": "SNB-75 CNS"}, "[25]": {"tested_on": "IGROV1 ovarian"}, "[26]": {"tested_on": "A549 NSCLC"}, "[27]": {"tested_on": "UO-31 renal"}, "[28]": {"tested_on": "SW-620 colon"}, "[29]": {"tested_on": "NCI-H460 lung"}}, "note": "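Compound exposure: 48 hours, 5 concentrations, 96-well plates. Abbreviation: GI50, concentration required for 50% inhibition of growth. TGI: concentration producing complete growth inhibition.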"}
{"smiles": "COC1=CC(c2ccc[nH]2)=N/C1=C\\c1[nH]c(C)c(C(=O)CCCCC(=O)NCc2ccccc2)c1C", "values": [{"measurement": "TGI", "setting": "[1]", "result": 6.52, "unit": "µM"}, {"measurement": "GI50", "setting": "[2]", "result": 1.9, "unit": "µM"}, {"measurement": "TGI", "setting": "[2]", "result": 4.58, "unit": "µM"}, {"measurement": "GI50", "setting": "[3]", "result": 1.95, "unit": "µM"}, {"measurement": "TGI", "setting": "[3]", "result": 6.09, "unit": "µM"}, {"measurement": "GI50", "setting": "[4]", "result": 2.47, "unit": "µM"}, {"measurement": "TGI", "setting": "[4]", "result": 11, "unit": "µM"}, {"measurement": "GI50", "setting": "[5]", "result": 15.5, "unit": "µM"}, {"measurement": "TGI", "setting": "[5]", "result": 35.3, "unit": "µM"}, {"measurement": "GI50", "setting": "[6]", "result": 2.54, "unit": "µM"}, {"measurement": "TGI", "setting": "[6]", "result": 13.4, "unit": "µM"}, {"measurement": "GI50", "setting": "[7]", "result": 2.15, "unit": "µM"}, {"measurement": "TGI", "setting": "[7]", "result": 4.63, "unit": "µM"}, {"measurement": "GI50", "setting": "[8]", "result": 2.1, "unit": "µM"}, {"measurement": "TGI", "setting": "[8]", "result": 7.12, "unit": "µM"}, {"measurement": "GI50", "setting": "[9]", "result": 0.723, "unit": "µM"}, {"measurement": "TGI", "setting": "[9]", "result": 5.67, "unit": "µM"}, {"measurement": "GI50", "setting": "[10]", "result": 2.68, "unit": "µM"}, {"measurement": "TGI", "setting": "[10]", "result": 7.36, "unit": "µM"}, {"measurement": "GI50", "setting": "[11]", "result": 1.51, "unit": "µM"}, {"measurement": "TGI", "setting": "[11]", "result": 2.83, "unit": "µM"}, {"measurement": "GI50", "setting": "[12]", "result": 1.09, "unit": "µM"}, {"measurement": "TGI", "setting": "[12]", "result": 3.09, "unit": "µM"}, {"measurement": "GI50", "setting": "[13]", "result": 2.2, "unit": "µM"}, {"measurement": "TGI", "setting": "[13]", "result": 7.33, "unit": "µM"}, {"measurement": "GI50", "setting": "[14]", "result": 1.43, "unit": "µM"}, {"measurement": "TGI", "setting": "[14]", "result": 2.95, "unit": "µM"}, {"measurement": "GI50", "setting": "[15]", "result": 10.8, "unit": "µM"}, {"measurement": "TGI", "setting": "[15]", "result": 23.4, "unit": "µM"}, {"measurement": "GI50", "setting": "[16]", "result": 1.57, "unit": "µM"}, {"measurement": "TGI", "setting": "[16]", "result": 3.99, "unit": "µM"}, {"measurement": "GI50", "setting": "[17]", "result": 8.85, "unit": "µM"}, {"measurement": "TGI", "setting": "[17]", "result": 22.8, "unit": "µM"}, {"measurement": "GI50", "setting": "[18]", "result": 4.66, "unit": "µM"}, {"measurement": "TGI", "setting": "[18]", "result": 15.8, "unit": "µM"}, {"measurement": "GI50", "setting": "[19]", "result": 2.4, "unit": "µM"}, {"measurement": "TGI", "setting": "[19]", "result": 6.69, "unit": "µM"}, {"measurement": "GI50", "setting": "[20]", "result": 2.07, "unit": "µM"}, {"measurement": "TGI", "setting": "[20]", "result": 4.64, "unit": "µM"}, {"measurement": "GI50", "setting": "[21]", "result": 2.49, "unit": "µM"}, {"measurement": "TGI", "setting": "[21]", "result": 8.11, "unit": "µM"}, {"measurement": "GI50", "setting": "[22]", "result": 2.56, "unit": "µM"}, {"measurement": "TGI", "setting": "[22]", "result": 5.57, "unit": "µM"}, {"measurement": "GI50", "setting": "[23]", "result": 1.64, "unit": "µM"}, {"measurement": "TGI", "setting": "[23]", "result": 3.53, "unit": "µM"}, {"measurement": "GI50", "setting": "[24]", "result": 3.72, "unit": "µM"}, {"measurement": "TGI", "setting": "[24]", "result": 15.1, "unit": "µM"}, {"measurement": "GI50", "setting": "[25]", "result": 3.36, "unit": "µM"}, {"measurement": "TGI", "setting": "[25]", "result": 14.7, "unit": "µM"}, {"measurement": "GI50", "setting": "[26]", "result": 3.56, "unit": "µM"}, {"measurement": "TGI", "setting": "[26]", "result": 16.9, "unit": "µM"}, {"measurement": "GI50", "setting": "[27]", "result": 2.26, "unit": "µM"}, {"measurement": "TGI", "setting": "[27]", "result": 8.81, "unit": "µM"}, {"measurement": "GI50", "setting": "[28]", "result": 1.06, "unit": "µM"}, {"measurement": "TGI", "setting": "[28]", "result": 2.58, "unit": "µM"}, {"measurement": "GI50", "setting": "[29]", "result": 1.99, "unit": "µM"}, {"measurement": "TGI", "setting": "[29]", "result": 5.34, "unit": "µM"}]}
